The text below walks through data of ChEMBL document CHEMBL2331162, “Biophysical fragment screening of the β1-adrenergic receptor: identification of high affinity arylpiperazine leads using structure-based drug design” (J Med Chem, 2013).

pKi: −log10 of the molar value. Calls of active or inactive are those of the source. The calls are words filed in the database; no cut-off is given here.

For assay [1], the target named is Beta-1 adrenergic receptor (Homo sapiens, UniProt P08588). The assay can be described thus: Displacement of [3H]dihydroalprenolol from human wild type beta1 adrenergic receptor expressed in HEK293 cell membranes after 90 mins by liquid scintillation counting analysis.
Chain of Beta-1 adrenergic receptor (P08588 whole entry): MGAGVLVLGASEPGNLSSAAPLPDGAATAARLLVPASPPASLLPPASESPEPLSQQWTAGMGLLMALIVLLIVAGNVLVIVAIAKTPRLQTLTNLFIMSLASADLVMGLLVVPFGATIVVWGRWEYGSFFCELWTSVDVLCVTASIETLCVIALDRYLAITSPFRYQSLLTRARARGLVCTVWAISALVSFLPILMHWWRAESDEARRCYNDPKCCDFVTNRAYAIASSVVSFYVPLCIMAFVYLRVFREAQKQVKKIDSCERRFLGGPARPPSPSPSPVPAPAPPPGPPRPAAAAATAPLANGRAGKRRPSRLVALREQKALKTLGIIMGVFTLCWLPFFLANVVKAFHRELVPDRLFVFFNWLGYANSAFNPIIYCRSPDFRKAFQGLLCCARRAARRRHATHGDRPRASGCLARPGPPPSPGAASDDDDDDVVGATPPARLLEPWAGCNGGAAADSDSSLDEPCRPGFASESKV
The target of assay [2] is T1, Muscarinic acetylcholine receptor M4 (Homo sapiens) (UniProt P08173).
T1 sequence (whole entry): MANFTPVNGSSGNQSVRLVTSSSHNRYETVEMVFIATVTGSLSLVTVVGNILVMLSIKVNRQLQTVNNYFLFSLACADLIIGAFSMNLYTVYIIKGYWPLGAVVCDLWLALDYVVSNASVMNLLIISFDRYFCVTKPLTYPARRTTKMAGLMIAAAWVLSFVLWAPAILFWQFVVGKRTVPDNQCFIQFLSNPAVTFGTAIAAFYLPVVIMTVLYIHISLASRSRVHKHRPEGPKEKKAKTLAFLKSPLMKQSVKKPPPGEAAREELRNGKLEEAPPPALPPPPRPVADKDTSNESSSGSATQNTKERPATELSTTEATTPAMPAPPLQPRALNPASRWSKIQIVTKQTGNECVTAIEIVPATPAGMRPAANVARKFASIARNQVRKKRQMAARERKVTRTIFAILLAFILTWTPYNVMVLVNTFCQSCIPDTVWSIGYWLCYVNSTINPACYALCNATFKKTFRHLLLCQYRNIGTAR
Nature of the assay: Agonist activity at human muscarinic M4 receptor expressed in CHO cells assessed as stimulation of ERK1/2 phosphorylation after 15 mins by Alphascreen Surefire assay. The class given is cell-based. A general note: Bead proximity is the source of the signal in Alpha formats.

The target in assay [3] is T2, Muscarinic acetylcholine receptor M3 (Homo sapiens, UniProt P20309). The assay can be described thus: Agonist activity at human muscarinic M3 receptor expressed in CHO cells assessed as stimulation of ERK1/2 phosphorylation after 15 mins by Alphascreen Surefire assay. The class given is cell-based.
Target sequence in this assay (P20309 whole entry, looked up): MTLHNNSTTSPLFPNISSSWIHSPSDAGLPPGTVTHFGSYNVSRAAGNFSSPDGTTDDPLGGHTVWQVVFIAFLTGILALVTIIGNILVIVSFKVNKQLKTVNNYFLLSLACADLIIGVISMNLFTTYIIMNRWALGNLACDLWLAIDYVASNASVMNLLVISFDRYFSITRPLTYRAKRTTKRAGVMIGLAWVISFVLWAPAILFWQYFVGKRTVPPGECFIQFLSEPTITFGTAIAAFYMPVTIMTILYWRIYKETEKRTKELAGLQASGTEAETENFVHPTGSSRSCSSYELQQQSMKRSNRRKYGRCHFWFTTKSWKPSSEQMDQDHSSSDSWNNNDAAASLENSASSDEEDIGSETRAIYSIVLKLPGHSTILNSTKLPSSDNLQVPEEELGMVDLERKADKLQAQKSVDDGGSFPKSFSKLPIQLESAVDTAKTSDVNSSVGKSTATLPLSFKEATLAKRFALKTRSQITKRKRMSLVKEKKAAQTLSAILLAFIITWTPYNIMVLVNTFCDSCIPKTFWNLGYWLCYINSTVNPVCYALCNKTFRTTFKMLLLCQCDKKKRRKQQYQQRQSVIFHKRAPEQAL
Assay [4] addresses T3, Muscarinic acetylcholine receptor M2 (Homo sapiens) (UniProt P08172).
T3 sequence (whole entry): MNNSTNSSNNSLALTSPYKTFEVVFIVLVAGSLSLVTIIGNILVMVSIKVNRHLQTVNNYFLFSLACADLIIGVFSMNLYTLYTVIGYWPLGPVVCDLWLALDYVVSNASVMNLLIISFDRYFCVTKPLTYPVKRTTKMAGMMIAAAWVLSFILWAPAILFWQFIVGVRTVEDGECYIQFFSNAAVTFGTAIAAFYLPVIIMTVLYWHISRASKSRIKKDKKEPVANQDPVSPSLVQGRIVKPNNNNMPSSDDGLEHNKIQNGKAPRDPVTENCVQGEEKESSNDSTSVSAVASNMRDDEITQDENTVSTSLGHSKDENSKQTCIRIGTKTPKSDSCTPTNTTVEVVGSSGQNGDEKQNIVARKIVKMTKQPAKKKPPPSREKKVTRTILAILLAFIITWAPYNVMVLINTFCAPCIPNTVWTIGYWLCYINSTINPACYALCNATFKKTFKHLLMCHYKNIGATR
Nature of the assay: Agonist activity at human muscarinic M2 receptor expressed in CHO cells assessed as stimulation of ERK1/2 phosphorylation after 15 mins by Alphascreen Surefire assay. The class given is cell-based.

For assay [5], the target named is T4, Muscarinic acetylcholine receptor M1 (Homo sapiens) (UniProt P11229).
T4 sequence (whole entry): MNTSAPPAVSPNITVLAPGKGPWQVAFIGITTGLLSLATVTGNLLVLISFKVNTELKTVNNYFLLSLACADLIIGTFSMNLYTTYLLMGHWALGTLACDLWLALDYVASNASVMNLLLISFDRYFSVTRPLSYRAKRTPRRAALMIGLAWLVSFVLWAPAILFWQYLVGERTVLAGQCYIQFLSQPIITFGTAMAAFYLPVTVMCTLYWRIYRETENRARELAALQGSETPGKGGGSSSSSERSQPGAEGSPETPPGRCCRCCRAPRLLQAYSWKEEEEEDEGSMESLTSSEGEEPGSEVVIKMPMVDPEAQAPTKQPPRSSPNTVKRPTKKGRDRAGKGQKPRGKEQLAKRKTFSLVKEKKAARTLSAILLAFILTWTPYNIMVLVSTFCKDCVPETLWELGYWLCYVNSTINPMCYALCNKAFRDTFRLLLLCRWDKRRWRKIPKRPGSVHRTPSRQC
Nature of the assay: Agonist activity at human muscarinic M1 receptor expressed in CHO cells assessed as stimulation of ERK1/2 phosphorylation after 15 mins by Alphascreen Surefire assay. The class given is cell-based.

The target in assay [6] is T5, Muscarinic acetylcholine receptor M4 (Homo sapiens, UniProt P08173).
T5 sequence (P08173 whole entry): T1 sequence (whole entry)
The assay can be described thus: Displacement of [3H]-NMS from recombinant muscarinic M4 receptor (unknown origin) expressed in CHOK1 cells after 60 mins by liquid scintillation counting analysis. The class given is cell-based, CHO-K1. A general note: In a radioligand displacement assay an active substance lowers the binding of a labelled ligand.

Assay [7] addresses T2, Muscarinic acetylcholine receptor M3. Nature of the assay: Displacement of [3H]-NMS from recombinant muscarinic M3 receptor (unknown origin) expressed in CHOK1 cells after 60 mins by liquid scintillation counting analysis. The format is cell-based, CHO-K1.
Target sequence in this assay (P20309 whole entry): as the sequence (P20309 whole entry, looked up) above
The target of assay [8] is T6, Muscarinic acetylcholine receptor M2 (Homo sapiens, UniProt P08172).
T6 sequence (P08172 whole entry): T3 sequence (whole entry)
Nature of the assay: Displacement of [3H]-NMS from recombinant muscarinic M2 receptor (unknown origin) expressed in CHOK1 cells after 60 mins by liquid scintillation counting analysis. The class given is cell-based, CHO-K1.

In the case of `FC(F)(F)c1ccnc(N2CCNCC2)c1`, the pKi – broadly, the negative decadic logarithm of the Ki, by convention in mol/L – in assay [1] was 5.63.
`Cc1cccc(N2CCNCC2)c1C` gave a negative-log Ki (pKi) in assay [1] of 6.27.
In the case of `FC(F)(F)c1ccnc(N2CCNCC2)n1`, in assay [1], the negative logarithm of the Ki (pKi) is 5.60.
In the case of `Clc1cc(Cl)cc(N2CCNCC2)c1`, the outcome in assay [2], in assay [3], in assay [4] and in assay [5] was inactive. Moreover, the negative-log Ki (pKi) is 4.50 in assay [6], 5.10 in assay [7] and 7.07 in assay [1].
In assay [1], `Cc1nc(N2CCNCC2)c2c3c(sc2n1)CC(C)CC3` (stereo unspecified) had a pKi of 6.17.
On to `Cc1cc(N2CCNCC2)nc2ccccc12`, for which the outcome in assay [2], in assay [3], in assay [4] and in assay [5] was inactive. The values for the pKi in assay [8] and in assay [1] were below 4.70 and 6.65, respectively.
`c1csc(-c2cccc3ccc(N4CCNCC4)nc23)c1` showed a pKi in assay [1] of 6.60.
On the same count and under the same terms, the figure for `COc1cc(OC)cc(N2CCNCC2)c1` is 5.80.
On the same count and under the same terms, the figure for `CSc1nc(N2CCNCC2)c2sc3c(c2n1)CCCC3` is 6.70.
On to `Clc1cccc(N2CCNCC2)c1Cl`, for which the result in assay [2], in assay [3], in assay [4] and in assay [5] was inactive. For the same compound, the pKi is below 4.70 in assay [8] and 6.97 in assay [1].
In turn, `Cc1ccc(N2CCNCC2)cc1C` gave a negative logarithm of the Ki (pKi) in assay [1] of 6.13.
Same read-out and setting: for `Clc1ccc(N2CCNCC2)cc1Cl` the value was 6.67.
Compound `FC(F)(F)c1cc(N2CCNCC2)cc(C(F)(F)F)c1` gave a pKi in assay [1] of 5.90.
Take `c1cc(N2CCNCC2)c2cc[nH]c2c1`: the result in assay [2], in assay [3], in assay [4] and in assay [5] was inactive. Also, the pKi was below 4.70 in assay [8] and 7.17 in assay [1].
For `Cc1cc(N2CCNCC2)c2ccccc2n1`, in assay [1], the pKi is 5.80.
